These results are taken from ChEMBL document CHEMBL5303304, “EUbOPEN Chemogenomics Library - IncuCyte” (2023).

Type in all cases: toxicity, cell-based
The subject of one data set is HEK-293T. The data set can be described thus: Incucyte cell viability with HEK293T. The following applies: human, 10 µM, compound concentration 10 uM.
The test system of the next data set is Fibroblast. Description: Incucyte cell viability with human fibroblast. The following applies: 10 µM, compound concentration 10 uM.
The test system of the next data set is U2OS. Description: Incucyte cell viability with U2OS. The following applies: human, 10 µM, compound concentration 10 uM.
Further: unitless GR value; below 1 slowed growth and below 0 cell loss.

Consider `Cn1cc(-c2ccc(N(C(=O)NCc3ccccc3)[C@H]3CC[C@H](Nc4ccc(C#N)cn4)CC3)cc2)ccc1=O`, for which the “Growth Rate” value with HEK-293T (0 h, replicate number 1) is given as -0.73; in the data set on HEK-293T (0 h, replicate number 2), 0.96; with HEK-293T (6 h, replicate number 1), -0.2; with HEK-293T (6 h, replicate number 2), -0.56; in the data set on HEK-293T (12 h, replicate number 1) it was -0.28; with HEK-293T (12 h, replicate number 2) it was -0.56. Also, the “Growth Rate” value in the data set with HEK-293T (18 h, replicate number 1) is on record as -0.21; in the data set with HEK-293T (18 h, replicate number 2) it was -0.48; in the data set on HEK-293T (24 h, replicate number 1), -0.14; in the data set with HEK-293T (24 h, replicate number 2), -0.39; with Fibroblast (0 h, replicate number 1), 0.84; with Fibroblast (0 h, replicate number 2), -0.77. Further, the “Growth Rate” value in the data set with Fibroblast (6 h, replicate number 1) is recorded as 0.65; in the data set on Fibroblast (6 h, replicate number 2), 0.48; with Fibroblast (12 h, replicate number 1) it was 0.45; in the data set with Fibroblast (12 h, replicate number 2), -0.01; in the data set with Fibroblast (18 h, replicate number 1), 0.17; in the data set with Fibroblast (18 h, replicate number 2) it was -0.04. Further, the “Growth Rate” value with Fibroblast (24 h, replicate number 1) is given as 0.16; with Fibroblast (24 h, replicate number 2), -0.08; with U2OS (6 h, replicate number 1), 0.45; in the data set with U2OS (6 h, replicate number 2) it was 0.58; in the data set on U2OS (12 h, replicate number 1) it was 0.28; in the data set with U2OS (18 h, replicate number 1) it was 0.12. The “Growth Rate” value is on record as 0.06 with U2OS (18 h, replicate number 2); -0.14 in the data set on U2OS (24 h, replicate number 1); -0.05 with U2OS (24 h, replicate number 2).

Regarding `CC(C)Oc1ccc(-c2cnc3c(-c4ccnc5ccccc45)cnn3c2)cc1`, the “Growth Rate” value with HEK-293T (0 h, replicate number 2) is 0.99; with HEK-293T (6 h, replicate number 1) it was -0.63; in the data set with HEK-293T (12 h, replicate number 1) it was -0.46; with HEK-293T (18 h, replicate number 1), -0.07; in the data set with HEK-293T (24 h, replicate number 1) it was 0.3; in the data set on Fibroblast (0 h, replicate number 2), -0.98. The “Growth Rate” value is listed as 0.72 in the data set on Fibroblast (6 h, replicate number 1); -1 with Fibroblast (12 h, replicate number 1); 0.49 in the data set with Fibroblast (18 h, replicate number 1); -0.36 in the data set on U2OS (0 h, replicate number 1); 0.23 with U2OS (6 h, replicate number 2); 0.74 in the data set with U2OS (12 h, replicate number 2). The “Growth Rate” value in the data set with U2OS (18 h, replicate number 2) turned out to be 0.79; with U2OS (24 h, replicate number 2), 0.97.

Take `CCn1c(-c2nonc2N)nc2c(C#CC(C)(C)O)ncc(OCC3CCCNC3)c21` (stereo unspecified): the “Growth Rate” value with HEK-293T (0 h, replicate number 1) is listed as 0.09; in the data set with HEK-293T (0 h, replicate number 2), 0.47; in the data set on HEK-293T (6 h, replicate number 1), -0.57; in the data set with HEK-293T (6 h, replicate number 2), -0.49; with HEK-293T (12 h, replicate number 1), -0.65; with HEK-293T (12 h, replicate number 2) it was -0.05. The “Growth Rate” value is reported as -0.26 in the data set with HEK-293T (18 h, replicate number 1); 0.15 with HEK-293T (18 h, replicate number 2); -0.03 in the data set on HEK-293T (24 h, replicate number 1); 0.13 in the data set on HEK-293T (24 h, replicate number 2); -0.85 in the data set on Fibroblast (0 h, replicate number 1); -0.99 with Fibroblast (6 h, replicate number 2). Moreover, the “Growth Rate” value with Fibroblast (12 h, replicate number 2) is reported as 0.5; in the data set on Fibroblast (18 h, replicate number 1) it was -0.63; in the data set with Fibroblast (18 h, replicate number 2) it was 0.47; in the data set with Fibroblast (24 h, replicate number 1), 0.21; in the data set on Fibroblast (24 h, replicate number 2), 0.58; with U2OS (6 h, replicate number 2) it was 0.47. Further, the “Growth Rate” value in the data set on U2OS (12 h, replicate number 2) is 0.86; in the data set with U2OS (18 h, replicate number 2) it was 0.84; in the data set on U2OS (24 h, replicate number 1) it was 0.96; in the data set with U2OS (24 h, replicate number 2), 0.9.

For `NCCCNCCCCNCCC(=O)NCCCCCNC(=O)[C@H](CC(N)=O)NC(=O)Cc1ccc(O)cc1O` [JORO SPIDER TOXIN 3], the “Growth Rate” value is -0.96 with HEK-293T (0 h, replicate number 1); -1 with HEK-293T (0 h, replicate number 2); 0.16 in the data set on Fibroblast (0 h, replicate number 1); -1 with Fibroblast (0 h, replicate number 2); 0.85 in the data set with Fibroblast (18 h, replicate number 1); 0.49 with Fibroblast (24 h, replicate number 1). Moreover, the “Growth Rate” value in the data set on U2OS (0 h, replicate number 2) is -0.97.

Consider `CNc1nc(-c2cc(C(=O)N3CCN(Cc4ccc(Cl)cc4)CC3)c(Cl)cn2)cs1`, for which the “Growth Rate” value with HEK-293T (6 h, replicate number 1) is on record as 0.91; with HEK-293T (6 h, replicate number 2), -0.49; in the data set with HEK-293T (12 h, replicate number 1) it was 0.62; in the data set on HEK-293T (12 h, replicate number 2) it was 0.01; in the data set on HEK-293T (18 h, replicate number 1), 0.62; in the data set with HEK-293T (18 h, replicate number 2), 0.14. Also, the “Growth Rate” value in the data set with HEK-293T (24 h, replicate number 1) is given as 0.69; in the data set on HEK-293T (24 h, replicate number 2) it was 0.23; with Fibroblast (0 h, replicate number 1) it was -1; in the data set with Fibroblast (6 h, replicate number 1), -0.5; with Fibroblast (6 h, replicate number 2), -0.96; with Fibroblast (12 h, replicate number 1), -0.19. Further, the “Growth Rate” value with Fibroblast (12 h, replicate number 2) is recorded as -0.28; in the data set with Fibroblast (18 h, replicate number 1) it was -0.06; in the data set on Fibroblast (18 h, replicate number 2), -0.12; in the data set on Fibroblast (24 h, replicate number 1) it was 0.23; with Fibroblast (24 h, replicate number 2), 0.18; with U2OS (0 h, replicate number 1), -0.54. The “Growth Rate” value is given as -0.41 with U2OS (0 h, replicate number 2); -0.33 in the data set on U2OS (6 h, replicate number 1); -0.21 in the data set on U2OS (6 h, replicate number 2); 0.1 with U2OS (12 h, replicate number 1); 0.27 in the data set with U2OS (12 h, replicate number 2); 0.4 in the data set with U2OS (18 h, replicate number 1). In addition, the “Growth Rate” value came to 0.37 in the data set on U2OS (18 h, replicate number 2); 0.37 in the data set with U2OS (24 h, replicate number 1); 0.65 with U2OS (24 h, replicate number 2).

On to `Cc1cc(C)cc(C(=O)NOCCCCCC(=O)NO)c1`, for which the “Growth Rate” value was 0.89 in the data set with HEK-293T (0 h, replicate number 2); 0.34 in the data set on HEK-293T (12 h, replicate number 1); 0.82 in the data set on HEK-293T (12 h, replicate number 2); 0.12 in the data set with HEK-293T (18 h, replicate number 1); 0.44 in the data set on HEK-293T (18 h, replicate number 2); 0.14 in the data set on HEK-293T (24 h, replicate number 1). The “Growth Rate” value was 0.28 in the data set on HEK-293T (24 h, replicate number 2); -0.28 in the data set with Fibroblast (0 h, replicate number 1); -0.16 with Fibroblast (6 h, replicate number 2); -0.96 with Fibroblast (12 h, replicate number 1); 0.86 in the data set with Fibroblast (12 h, replicate number 2); -0.74 in the data set on Fibroblast (18 h, replicate number 1). Also, the “Growth Rate” value with Fibroblast (18 h, replicate number 2) is reported as 0.23; with Fibroblast (24 h, replicate number 1), -0.33; in the data set with Fibroblast (24 h, replicate number 2) it was 0.51; in the data set with U2OS (6 h, replicate number 1), 0.62; in the data set on U2OS (6 h, replicate number 2), 0.86; in the data set with U2OS (12 h, replicate number 2), 0.58. Also, the “Growth Rate” value with U2OS (18 h, replicate number 1) is reported as 0.71; in the data set with U2OS (18 h, replicate number 2), 0.5; in the data set on U2OS (24 h, replicate number 1), 0.26; in the data set on U2OS (24 h, replicate number 2), 0.22.

For the compound `Cc1c(N2CCCC2)nc2ccc(Br)cc2c1C(=O)NC[C@H](CCC(=O)O)c1ccccc1Cl` [BAY-6672], the “Growth Rate” value in the data set on HEK-293T (0 h, replicate number 1) was -0.43; in the data set on HEK-293T (12 h, replicate number 2), 0.76; in the data set with HEK-293T (18 h, replicate number 2), 0.38; with HEK-293T (24 h, replicate number 2) it was 0.44; in the data set with Fibroblast (6 h, replicate number 1), 0.13; with Fibroblast (12 h, replicate number 1) it was 0.91. In addition, the “Growth Rate” value in the data set with Fibroblast (18 h, replicate number 1) is reported as 0.97; in the data set with Fibroblast (18 h, replicate number 2), 0.93; in the data set with Fibroblast (24 h, replicate number 2), 0.89; in the data set with U2OS (0 h, replicate number 1), 0.89; in the data set with U2OS (0 h, replicate number 2) it was 0.47; in the data set with U2OS (6 h, replicate number 1) it was 0.7. Besides, the “Growth Rate” value with U2OS (6 h, replicate number 2) turned out to be 0.83; in the data set with U2OS (12 h, replicate number 1), 0.88; in the data set with U2OS (12 h, replicate number 2), 0.83; in the data set with U2OS (18 h, replicate number 1), 0.67; in the data set with U2OS (18 h, replicate number 2), 0.9; in the data set with U2OS (24 h, replicate number 1), 0.98. The “Growth Rate” value with U2OS (24 h, replicate number 2) was determined as 0.79.

Turning to `COCc1nc2cnc3cc(-c4c(C)noc4C)c(OC[C@H]4CCNC4)cc3c2n1[C@H](C)c1ccccc1` [GSK778], the “Growth Rate” value with HEK-293T (0 h, replicate number 2) is 0.24; in the data set with Fibroblast (6 h, replicate number 1), 0.26; in the data set on Fibroblast (6 h, replicate number 2), -0.01; with Fibroblast (12 h, replicate number 1) it was 0.63; with Fibroblast (12 h, replicate number 2), 0.65; in the data set with Fibroblast (18 h, replicate number 1), 0.73. Besides, the “Growth Rate” value in the data set on Fibroblast (24 h, replicate number 1) was 0.98; in the data set on U2OS (0 h, replicate number 1), 0.09; in the data set with U2OS (0 h, replicate number 2) it was -1; in the data set with U2OS (6 h, replicate number 1) it was 0.78; with U2OS (6 h, replicate number 2), -0.84; in the data set with U2OS (12 h, replicate number 1), -0.64. Further, the “Growth Rate” value is on record as 0.73 in the data set with U2OS (12 h, replicate number 2); 0.74 with U2OS (18 h, replicate number 2); 1 in the data set on U2OS (24 h, replicate number 1); 0.7 with U2OS (24 h, replicate number 2).

Take `Cc1cc(OC2CCS(=O)(=O)CC2)cc(C)c1-c1cccc(COc2ccc(CCC(=O)O)c(F)c2)c1`: the “Growth Rate” value in the data set with HEK-293T (0 h, replicate number 2) is reported as 0.14; with HEK-293T (6 h, replicate number 1), 0.99; in the data set on HEK-293T (18 h, replicate number 1), 0.99; in the data set with HEK-293T (24 h, replicate number 1) it was 0.94; in the data set on HEK-293T (24 h, replicate number 2), 0.96; in the data set on Fibroblast (0 h, replicate number 1) it was -0.63. Besides, the “Growth Rate” value worked out at 0 in the data set with Fibroblast (0 h, replicate number 2); 0.64 in the data set on Fibroblast (12 h, replicate number 1); 0.88 in the data set on Fibroblast (12 h, replicate number 2); 0.84 with Fibroblast (18 h, replicate number 1); 0.78 with U2OS (6 h, replicate number 2); 0.88 in the data set with U2OS (12 h, replicate number 1). The “Growth Rate” value is given as 0.91 in the data set on U2OS (12 h, replicate number 2); 0.96 with U2OS (18 h, replicate number 1); 0.99 in the data set on U2OS (18 h, replicate number 2); 0.92 in the data set with U2OS (24 h, replicate number 1); 0.87 in the data set on U2OS (24 h, replicate number 2).
